From the NIST ThermoML archive (doi:10.1016/j.jct.2018.10.015)
Numbers after ± are expanded uncertainties.

Experiments:
[1] = xn = mol fraction of the nth substance listed; details: 101.3 kPa, Liquid, x2 = 0; for viscosity: Concentric cylinders viscometry; for mass density: Vibrating tube method
[2] = 101.3 kPa, Liquid; for viscosity: Concentric cylinders viscometry; for mass density: Vibrating tube method

COC(=O)OC [dimethyl carbonate] + CCn1cc[n+](C)c1C.O=S(=O)([N-]S(=O)(=O)C(F)(F)F)C(F)(F)F
[1]
Details	mass density [kg/m3]	viscosity [mPa·s]
293.15 K	1069.7 ± 2.4	0.629 ± 0.009
298.15 K	1063.1 ± 2.4	0.59 ± 0.008
303.15 K	1056.4 ± 2.4	0.555 ± 0.008
308.15 K	1049.7 ± 2.4	0.525 ± 0.008
313.15 K	1043.1 ± 2.4	0.495 ± 0.007
318.15 K	1036.4 ± 2.4	0.475 ± 0.007
323.15 K	1029.6 ± 2.4	0.446 ± 0.007
328.15 K	1022.8 ± 2.4	0.425 ± 0.007

CCOC(=O)OCC [diethyl carbonate] + CCn1cc[n+](C)c1C.O=S(=O)([N-]S(=O)(=O)C(F)(F)F)C(F)(F)F
[1]
Details	mass density [kg/m3]	viscosity [mPa·s]
293.15 K	974.9 ± 2.4	0.805 ± 0.011
298.15 K	969.3 ± 2.4	0.751 ± 0.01
303.15 K	963.7 ± 2.4	0.702 ± 0.01
308.15 K	958 ± 2.4	0.659 ± 0.009
313.15 K	952.4 ± 2.4	0.62 ± 0.009
318.15 K	946.7 ± 2.4	0.584 ± 0.008
323.15 K	940.9 ± 2.4	0.552 ± 0.008
328.15 K	935.2 ± 2.4	0.523 ± 0.008

CCOC(=O)OCC [diethyl carbonate] + CCCCn1cc[n+](C)c1C.O=S(=O)([N-]S(=O)(=O)C(F)(F)F)C(F)(F)F
[1]
Details	mass density [kg/m3]	viscosity [mPa·s]
293.15 K	974.9 ± 2.4	0.805 ± 0.011
298.15 K	969.3 ± 2.4	0.751 ± 0.01
303.15 K	963.7 ± 2.4	0.702 ± 0.01
308.15 K	958 ± 2.4	0.659 ± 0.009
313.15 K	952.4 ± 2.4	0.62 ± 0.009
318.15 K	946.7 ± 2.4	0.584 ± 0.008
323.15 K	940.9 ± 2.4	0.552 ± 0.008
328.15 K	935.2 ± 2.4	0.523 ± 0.008

COC(=O)OC [dimethyl carbonate]
[2]
Details	mass density [kg/m3]	viscosity [mPa·s]
293.15 K	1069.7 ± 2.4	0.629 ± 0.009
298.15 K	1063.1 ± 2.4	0.59 ± 0.008
303.15 K	1056.4 ± 2.4	0.555 ± 0.008
308.15 K	1049.7 ± 2.4	0.525 ± 0.008
313.15 K	1043.1 ± 2.4	0.495 ± 0.007
318.15 K	1036.4 ± 2.4	0.475 ± 0.007
323.15 K	1029.6 ± 2.4	0.446 ± 0.007
328.15 K	1022.8 ± 2.4	0.425 ± 0.007

CCCCn1cc[n+](C)c1C.O=S(=O)([N-]S(=O)(=O)C(F)(F)F)C(F)(F)F
[2]
Details	mass density [kg/m3]	viscosity [mPa·s]
293.15 K	1423.1 ± 2.5	133.6 ± 2.3
298.15 K	1418.5 ± 2.5	101.82 ± 1.6
303.15 K	1413.9 ± 2.5	79.23 ± 1.1
308.15 K	1409.3 ± 2.5	62.74 ± 0.78
313.15 K	1404.8 ± 2.5	50.56 ± 0.6
318.15 K	1400.2 ± 2.5	41.38 ± 0.5
323.15 K	1395.6 ± 2.5	34.32 ± 0.42
328.15 K	1391 ± 2.5	28.91 ± 0.35

CCOC(=O)OCC [diethyl carbonate]
[2]
Details	mass density [kg/m3]	viscosity [mPa·s]
293.15 K	974.9 ± 2.4	0.805 ± 0.011
298.15 K	969.3 ± 2.4	0.751 ± 0.01
303.15 K	963.7 ± 2.4	0.702 ± 0.01
308.15 K	958 ± 2.4	0.659 ± 0.009
313.15 K	952.4 ± 2.4	0.62 ± 0.009
318.15 K	946.7 ± 2.4	0.584 ± 0.008
323.15 K	940.9 ± 2.4	0.552 ± 0.008
328.15 K	935.2 ± 2.4	0.523 ± 0.008

COC(=O)OC [dimethyl carbonate] + CCCCn1cc[n+](C)c1C.O=S(=O)([N-]S(=O)(=O)C(F)(F)F)C(F)(F)F
[1]
Details	mass density [kg/m3]	viscosity [mPa·s]
293.15 K	1069.7 ± 2.4	0.629 ± 0.009
298.15 K	1063.1 ± 2.4	0.59 ± 0.008
303.15 K	1056.4 ± 2.4	0.555 ± 0.008
308.15 K	1049.7 ± 2.4	0.525 ± 0.008
313.15 K	1043.1 ± 2.4	0.495 ± 0.007
318.15 K	1036.4 ± 2.4	0.475 ± 0.007
323.15 K	1029.6 ± 2.4	0.446 ± 0.007
328.15 K	1022.8 ± 2.4	0.425 ± 0.007

CCn1cc[n+](C)c1C.O=S(=O)([N-]S(=O)(=O)C(F)(F)F)C(F)(F)F
[2]
Details	mass density [kg/m3]	viscosity [mPa·s]
293.15 K	1495.8 ± 2.5	89.88 ± 1.3
298.15 K	1491 ± 2.5	71.34 ± 0.92
303.15 K	1486.3 ± 2.5	57.64 ± 0.7
308.15 K	1481.5 ± 2.5	47.26 ± 0.58
313.15 K	1476.7 ± 2.5	39.24 ± 0.48
318.15 K	1472 ± 2.5	33 ± 0.4
323.15 K	1467.2 ± 2.5	28.05 ± 0.34
328.15 K	1462.4 ± 2.5	24.16 ± 0.29
